How the values were obtained:
[1] = tested on: R4A binding to dsDNA; assay: DNA ELISA, inhibition of R4A binding to dsDNA by fluid phase C1q; conditions: immobilized dsDNA
Method: (§1) ELISAs—Costar half-volume 96-well plates (Corning, N.Y.) were used for C1q ELISAs and Immulon 2HB 96-well plates (Milford, Mass.) were used for DNA ELISAs. C1q was purchased from Comptech (Tyler, Tex.) and adsorbed to 96-well plate (50 μg/ml) Plates were blocked with 2% BSA in PBS for 1 hour at RT. R4A antibody or IgG2b control immunoglobulin (MPC-11 hybridoma, ATCC, Manassas, Va.) was added for 1 hour at RT at various concentrations of NaCl. Cytokine ELISA was performed according to manufacturer's protocol (BD Biosciences, San Diego, Calif.). C1q collagen-tail of C1q was prepared as described in [21].

[2] = tested on: R4A binding to C1q; assay: ELISA, inhibition of R4A binding to C1q by peptide
Method: as §1

inhibition of R4A binding to dsDNA [1] | inhibition of R4A binding to C1q [2] | Substance
inhibited |  | C1q: human complement C1q, purchased from Comptech
 | inhibited | DWEYS [reference compound]
 | inhibited | EADYG (fusion protein)
